Reference: patent US6465457B1 (priority 1991, dated 2002)
Where two headings read alike, the source gives them in different places.

Experiments:
Type in all cases: in vivo
[1] = tested on: Erysiphe graminis tritici (Wheat); experiment: Foliar fungal disease test on plants: Erysiphe graminis tritici (Wheat); details: plants inoculated 24 hours before treatment
Septoria nodorum (Wheat) = experiment: Foliar fungal disease test on plants: Septoria nodorum (Wheat); details: one or two days before inoculation
[2] = tested on: Puccinia recondita (Wheat); experiment: Foliar fungal disease test on plants: Puccinia recondita (Wheat)
[3] = tested on: Plasmopara viticola (Vines); experiment: Foliar fungal disease test on plants: Plasmopara viticola (Vines); details: one or two days before inoculation
[4] = tested on: Phytophthora infestans (Tomatoes); details: one or two days before inoculation
[5] = tested on: Pyricularia oryzae (Rice); details: one or two days before inoculation
[6] = tested on: Venturia inaequalis (Apples); experiment: Foliar fungal disease test on plants: Venturia inaequalis (Apples); details: one or two days before inoculation
[7] = tested on: Thanatephorus cucumeries (Rice); experiment: Foliar fungal disease test on plants: Thanatephorus cucumeries (Rice); details: one or two days before inoculation
[8] = 10 ppm foliar spray only, plants inoculated with Puccinia recondita 48 hours before treatment
[9] = 100 ppm a.i. foliar spray or root drench (approx. 40 ppm in dry soil)
[10] = 100 ppm a.i. foliar spray or root drench (approx. 40 ppm in dry soil), one or two days before inoculation
[11] = 100 ppm a.i. foliar spray or root drench, plants inoculated with Puccinia recondita 48 hours before treatment

COC=C(C(=O)OC)c1ccccc1COC(=S)Nc1cccc(OC)c1 [7 (6)]
POCO (Percentage of Control) disease level, Erysiphe graminis tritici (Wheat) ([1]; 10 ppm foliar spray only): 0 (0 = 0% disease present) | POCO (Percentage of Control) disease level, Septoria nodorum (Wheat) (Septoria nodorum (Wheat); 10 ppm foliar spray only): 90 (90 and 94 = 60.1-100% disease present) | POCO (Percentage of Control) disease level, Puccinia recondita (Wheat) [2, 8]: 0+ (0 = 0% disease present) | POCO (Percentage of Control) disease level, Plasmopara viticola (Vines) ([3]; 10 ppm foliar spray only): 60 (60 = 30.1-60% disease present) | POCO (Percentage of Control) disease level, Phytophthora infestans (Tomatoes) ([4]; 10 ppm foliar spray only): 90 (90 and 94 = 60.1-100% disease present) | POCO (Percentage of Control) disease level, Pyricularia oryzae (Rice) ([5]; 10 ppm foliar spray only): 10 (10 = 5.1-10% disease present) | POCO (Percentage of Control) disease level, Venturia inaequalis (Apples) ([6]; 10 ppm foliar spray only): 60 (60 = 30.1-60% disease present) | POCO (Percentage of Control) disease level, Thanatephorus cucumeries (Rice) ([7]; 10 ppm foliar spray only): 30 (30 = 20.1-30% disease present)

COC=C(C(=O)OC)c1ccccc1COC(=O)NCc1ccccc1 [4 (1)]
POCO (Percentage of Control) disease level, Erysiphe graminis tritici (Wheat) [1, 9]: 90 (90 and 94 = 60.1-100% disease present) | POCO (Percentage of Control) disease level, Septoria nodorum (Wheat) (Septoria nodorum (Wheat); [9]): 30 (30 = 20.1-30% disease present) | POCO (Percentage of Control) disease level, Puccinia recondita (Wheat) [2, 10]: 30 (30 = 20.1-30% disease present) | POCO (Percentage of Control) disease level, Plasmopara viticola (Vines) [3, 9]: 20 (20 and 24 = 10.1-20% disease present) | POCO (Percentage of Control) disease level, Phytophthora infestans (Tomatoes) [4, 9]: 60 (60 = 30.1-60% disease present) | POCO (Percentage of Control) disease level, Pyricularia oryzae (Rice) [5, 9]: 90 (90 and 94 = 60.1-100% disease present) | POCO (Percentage of Control) disease level, Venturia inaequalis (Apples) [6, 9]: 60 (60 = 30.1-60% disease present) | POCO (Percentage of Control) disease level, Thanatephorus cucumeries (Rice) [7, 9]: 90 (90 and 94 = 60.1-100% disease present)

COC=C(C(=O)OC)c1ccccc1COC(=O)Nc1cccc([N+](=O)[O-])c1 [6 (1)]
POCO (Percentage of Control) disease level, Erysiphe graminis tritici (Wheat) [1, 9]: 90 (90 and 94 = 60.1-100% disease present) | POCO (Percentage of Control) disease level, Septoria nodorum (Wheat) (Septoria nodorum (Wheat); [9]): 30 (30 = 20.1-30% disease present) | POCO (Percentage of Control) disease level, Puccinia recondita (Wheat) [2, 10]: 90 (90 and 94 = 60.1-100% disease present) | POCO (Percentage of Control) disease level, Plasmopara viticola (Vines) [3, 9]: 90 (90 and 94 = 60.1-100% disease present) | POCO (Percentage of Control) disease level, Phytophthora infestans (Tomatoes) [4, 9]: 60 (60 = 30.1-60% disease present) | POCO (Percentage of Control) disease level, Pyricularia oryzae (Rice) [5, 9]: 90 (90 and 94 = 60.1-100% disease present) | POCO (Percentage of Control) disease level, Venturia inaequalis (Apples) [6, 9]: 60 (60 = 30.1-60% disease present) | POCO (Percentage of Control) disease level, Thanatephorus cucumeries (Rice) [7, 9]: 90 (90 and 94 = 60.1-100% disease present)

COC=C(C(=O)OC)c1ccccc1COC(=O)N1CCc2ccccc21 [5 (133)]
POCO (Percentage of Control) disease level, Erysiphe graminis tritici (Wheat) ([1]; 10 ppm foliar spray only): 60 (60 = 30.1-60% disease present) | POCO (Percentage of Control) disease level, Septoria nodorum (Wheat) (Septoria nodorum (Wheat); 10 ppm foliar spray only): 90 (90 and 94 = 60.1-100% disease present) | POCO (Percentage of Control) disease level, Puccinia recondita (Wheat) [2, 8]: 90+ (90 and 94 = 60.1-100% disease present) | POCO (Percentage of Control) disease level, Plasmopara viticola (Vines) ([3]; 10 ppm foliar spray only): 90 (90 and 94 = 60.1-100% disease present) | POCO (Percentage of Control) disease level, Phytophthora infestans (Tomatoes) ([4]; 10 ppm foliar spray only): 90 (90 and 94 = 60.1-100% disease present) | POCO (Percentage of Control) disease level, Pyricularia oryzae (Rice) ([5]; 10 ppm foliar spray only): 90 (90 and 94 = 60.1-100% disease present) | POCO (Percentage of Control) disease level, Venturia inaequalis (Apples) ([6]; 10 ppm foliar spray only): 90 (90 and 94 = 60.1-100% disease present) | POCO (Percentage of Control) disease level, Thanatephorus cucumeries (Rice) ([7]; 10 ppm foliar spray only): 90 (90 and 94 = 60.1-100% disease present)

COC=C(C(=O)OC)c1ccccc1COC(=O)Nc1ccccc1F [3 (1)]
POCO (Percentage of Control) disease level, Erysiphe graminis tritici (Wheat) [1, 9]: 0 (0 = 0% disease present) | POCO (Percentage of Control) disease level, Septoria nodorum (Wheat) (Septoria nodorum (Wheat); [9]): 0 (0 = 0% disease present) | POCO (Percentage of Control) disease level, Puccinia recondita (Wheat) [2, 10]: 0 (0 = 0% disease present) | POCO (Percentage of Control) disease level, Plasmopara viticola (Vines) [3, 9]: 0 (0 = 0% disease present) | POCO (Percentage of Control) disease level, Phytophthora infestans (Tomatoes) [4, 9]: 30 (30 = 20.1-30% disease present) | POCO (Percentage of Control) disease level, Pyricularia oryzae (Rice) [5, 9]: 90 (90 and 94 = 60.1-100% disease present) | POCO (Percentage of Control) disease level, Venturia inaequalis (Apples) [6, 9]: 1 (1 = 0.1-1% disease present) | POCO (Percentage of Control) disease level, Thanatephorus cucumeries (Rice) [7, 9]: 90 (90 and 94 = 60.1-100% disease present)

COC=C(C(=O)OC)c1ccccc1COC(=O)N(C)c1ccccc1Cl [12 (2)]
POCO (Percentage of Control) disease level, Erysiphe graminis tritici (Wheat) [1, 9]: 0 (0 = 0% disease present) | POCO (Percentage of Control) disease level, Septoria nodorum (Wheat) (Septoria nodorum (Wheat); [9]): 3 (3 = 1.1-3% disease present) | POCO (Percentage of Control) disease level, Puccinia recondita (Wheat) [2, 11]: 30+ (30 = 20.1-30% disease present) | POCO (Percentage of Control) disease level, Plasmopara viticola (Vines) [3, 9]: 0 (0 = 0% disease present) | POCO (Percentage of Control) disease level, Phytophthora infestans (Tomatoes) [4, 9]: 5 (5 = 3.1-5% disease present) | POCO (Percentage of Control) disease level, Pyricularia oryzae (Rice) [5, 9]: 10 (10 = 5.1-10% disease present) | POCO (Percentage of Control) disease level, Venturia inaequalis (Apples) [6, 9]: 0 (0 = 0% disease present) | POCO (Percentage of Control) disease level, Thanatephorus cucumeries (Rice) [7, 9]: 0 (0 = 0% disease present)

CO/C=C(/C(=O)OC)c1ccccc1COC(=O)Nc1cccc(C(F)(F)F)c1 [2 (1), (E)-methyl 3-methoxy-2-[2-((3-trifluoromethylphenyl)carbamoyloxymethyl)phenyl]-propenoate]
POCO (Percentage of Control) disease level, Erysiphe graminis tritici (Wheat) [1, 9]: 60 (60 = 30.1-60% disease present) | POCO (Percentage of Control) disease level, Septoria nodorum (Wheat) (Septoria nodorum (Wheat); [9]): 20 (20 and 24 = 10.1-20% disease present) | POCO (Percentage of Control) disease level, Puccinia recondita (Wheat) [2, 10]: 10 (10 = 5.1-10% disease present) | POCO (Percentage of Control) disease level, Plasmopara viticola (Vines) [3, 9]: 10 (10 = 5.1-10% disease present) | POCO (Percentage of Control) disease level, Phytophthora infestans (Tomatoes) [4, 9]: 10 (10 = 5.1-10% disease present) | POCO (Percentage of Control) disease level, Pyricularia oryzae (Rice) [5, 9]: 5 (5 = 3.1-5% disease present) | POCO (Percentage of Control) disease level, Venturia inaequalis (Apples) [6, 9]: 0 (0 = 0% disease present) | POCO (Percentage of Control) disease level, Thanatephorus cucumeries (Rice) [7, 9]: 60 (60 = 30.1-60% disease present)

COC=C(C(=O)OC)c1ccccc1COC(=O)Nc1cc(F)ccc1F [27 (1)]
POCO (Percentage of Control) disease level, Erysiphe graminis tritici (Wheat) ([1]; 10 ppm foliar spray only): 90 (90 and 94 = 60.1-100% disease present) | POCO (Percentage of Control) disease level, Septoria nodorum (Wheat) (Septoria nodorum (Wheat); 10 ppm foliar spray only): 90 (90 and 94 = 60.1-100% disease present) | POCO (Percentage of Control) disease level, Puccinia recondita (Wheat) [2, 8]: 90+ (90 and 94 = 60.1-100% disease present) | POCO (Percentage of Control) disease level, Plasmopara viticola (Vines) ([3]; 10 ppm foliar spray only): 90 (90 and 94 = 60.1-100% disease present) | POCO (Percentage of Control) disease level, Phytophthora infestans (Tomatoes) ([4]; 10 ppm foliar spray only): 90 (90 and 94 = 60.1-100% disease present) | POCO (Percentage of Control) disease level, Pyricularia oryzae (Rice) ([5]; 10 ppm foliar spray only): 30 (30 = 20.1-30% disease present) | POCO (Percentage of Control) disease level, Venturia inaequalis (Apples) ([6]; 10 ppm foliar spray only): 90 (90 and 94 = 60.1-100% disease present) | POCO (Percentage of Control) disease level, Thanatephorus cucumeries (Rice) ([7]; 10 ppm foliar spray only): 90 (90 and 94 = 60.1-100% disease present)

COC=C(C(=O)OC)c1ccccc1COC(=O)Nc1ccc(F)c(Cl)c1 [104 (1)]
POCO (Percentage of Control) disease level, Erysiphe graminis tritici (Wheat) [1, 9]: 90 (90 and 94 = 60.1-100% disease present) | POCO (Percentage of Control) disease level, Septoria nodorum (Wheat) (Septoria nodorum (Wheat); [9]): 90 (90 and 94 = 60.1-100% disease present) | POCO (Percentage of Control) disease level, Puccinia recondita (Wheat) [2, 11]: 90+ (90 and 94 = 60.1-100% disease present) | POCO (Percentage of Control) disease level, Plasmopara viticola (Vines) [3, 9]: 60 (60 = 30.1-60% disease present) | POCO (Percentage of Control) disease level, Phytophthora infestans (Tomatoes) [4, 9]: 90 (90 and 94 = 60.1-100% disease present) | POCO (Percentage of Control) disease level, Pyricularia oryzae (Rice) [5, 9]: 90 (90 and 94 = 60.1-100% disease present) | POCO (Percentage of Control) disease level, Venturia inaequalis (Apples) [6, 9]: 90 (90 and 94 = 60.1-100% disease present) | POCO (Percentage of Control) disease level, Thanatephorus cucumeries (Rice) [7, 9]: 90 (90 and 94 = 60.1-100% disease present)
